In PMC11267533, “Ligandability at the Membrane Interface of GPx4 Revealed through a Reverse Micelle Fragment Screening Platform” (JACS Au, 2024) one finds Kd data, which are given here for 12 compounds.

SMILES strings stand for the structures. Bounds are passed on as bounds.

The first assay addresses T1, GPx4 embedded in a mmRM (membrane-bound GPx4) (Homo sapiens, UniProt P36969, U73G).
T1 construct: Truncated U46G-GPx4 with a TEV cleavable poly-histidine tag was inserted into vector; poly-histidine tag with TEV cleavage site; host or cells: BL21 (DE3) E. coli
T1 sequence (P36969 1-170 isoform P36969-2 U46G): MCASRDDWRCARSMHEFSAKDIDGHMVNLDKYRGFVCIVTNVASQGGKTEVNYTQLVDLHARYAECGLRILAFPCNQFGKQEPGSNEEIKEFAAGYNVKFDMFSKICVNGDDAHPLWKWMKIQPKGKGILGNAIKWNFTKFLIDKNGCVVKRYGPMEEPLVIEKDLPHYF
The assay is described as follows: NMR (15N-HSQC) titration of fragments against GPx4 embedded in DLPC/DPC mmRM, apparent Kd. It is filed as binding. The following applies: Table 1; GPx4 in DLPC/DPC mmRM, NMR titration up to 400 μM or 1 mM; ± standard error of global Kd fit; read-out: Kd (apparent). An excerpt: To assess whether the fragment hits are bound specifically to GPx4 and to calculate affinity, we performed NMR-based titrations. Chemical shift changes that approach saturation in a structurally localized manner target indicate specific binding.[24] This allows true positive hits to be separated from false positives and weak or nonspecific binders. Additionally, NMR-based titrations allow for the extraction of a binding affinity (Kd). To calculate apparent Kd values, CSP cutoffs were used to isolate the resonances with most shifting using 1 standard deviation above the average CSP. All 14 fragments identified from the deconvolutions were titrated up to 400 μM or 1 mM if needed. Of the 14, 9 had apparent Kds less than 1 mM and were identified as hits. Observed here is a 0.47% hit rate with best affinities in the μM range for the membrane-bound form of GPx4 and is consistent with ligandable and potentially druggable targets.[14],[57] […] The remaining five fragments, 10–14, were ruled out as weaker (>∼1 mM) or nonspecific binders. Weak or nonspecific binding could indicate that fragments partitioning to the mmRM surface and perturb the protein spectrum through a simple change in the chemical environment at the interface, among other possible nonspecific effects. […] We note that the weaker and nonspecific fragments were only eliminated due to interaction modes that are too weak or unproductive for advancement toward inhibitors; yet, binding was nevertheless detected. […] We note here that apparent Kd values reported in this study account for a total amount of fragment and protein within the mmRM sample and are not corrected for any potential concentrating effect due to localization of fragment to the mmRM surface or water phase.
NMR samples were prepared with ^15N-isotopically labeled protein with 10% v/v of d-pentane as the lock solvent (Sigma-Aldrich, St. Louis, MO). All NMR spectra were collected at 25 °C on a 700 MHz Bruker Avance III instrument. All NMR spectra were processed using NMRPipe[66] and analyzed using NMRFAM-Sparky.[67] Chemical shifts for GPx4 (BMRB 50955) were assigned from those previously published.[52] Chemical shift perturbations from ^15N-HSQC spectra were calculated using the following formula [drawing 1] where Δ^1H and Δ^15N are the changes in ^1H and ^15N chemical shifts, respectively.
The 14 fragments isolated from deconvolutions were purchased from Life Chemicals (fragments 1, 4, 6, and 11, and 12–14), Combi-Blocks (2, 3, 5, 9, and 10), or ChemBridge Hit2Lead (7 and 8). All fragment 1 and 5 analogues were also purchased from ChemBridge Hit2Lead. Fragments and analogues purchased from Life Chemicals and Hit2Lead are 90+% pure, while the fragments purchased from Combi-Blocks ranged from 95 to 97% pure. The day prior to the titration, a double-volume sample of encapsulated GPx4 was made before being split up into two separate vials. Half of the sample was added to the vial containing predried fragment corresponding to 400 μM or 1 mM. […] If they were, then the two samples were mixed to produce varying concentrations and to measure a titration curve. The top-shifting resonances were determined by calculating the average CSP at 400 μM or 1 mM and 1 and 2 standard deviations (σ) above that average. The CSP for the resonance at each fragment concentration was extracted and fit to a curve using an affinity equation that accounts for ligand depletion [drawing 2]
Any resonance producing a curve with an R^2 below 0.85 was removed, and the remaining resonances were then used to fit a global apparent Kd curve for the fragment hit. Standard error for Kd from the global fit of all of the selected residues is reported.
Consider `NCCS(=O)(=O)c1ccccc1` [Fragment 3], for which the Kd is 140 ± 50 µM.
Same read-out and setting: for `NCc1nc(-c2ncccn2)no1` [Fragment 7] the value was 310 ± 100 µM.
For `CC(=O)c1c(C)nn(CC(=O)O)c1C` [Fragment 8], the Kd worked out at 370 ± 165 µM.
For the compound `CCOC(=O)c1ccc(Cl)nn1` [Fragment 9], the Kd came out at 840 ± 300 µM.
As to `COCC(=O)N1CCOc2ccccc2C1` [Fragment 4], the Kd was 140 ± 85 µM.
Same read-out and setting: for `N#Cc1ccc(CC(=O)O)cc1` [Fragment 2] the value was 110 ± 65 µM.

The same assay, now with this note: Table 2, analogues of fragment 5; GPx4 in mmRM; ± standard error of global Kd fit; read-out: Apparent Kd.
On to `Cc1ccc(-c2cc(O)cc3sc(=O)oc23)cc1Cl` [Analog 5.7], for which the Kd was found to be 15 ± 10 µM.
As for `O=c1oc2c(-c3ccccc3Cl)cc(O)cc2s1` [Analog 5.3], the Kd amounted to 85 ± 50 µM.
On the same count and under the same terms, then `O=c1oc2c(-c3ccccc3)cc(O)cc2s1` [Analog 5.1], with above 400 µM.
Still for that read-out and setting: for `O=c1oc2c(-c3ccc(Cl)cc3)cc(O)cc2s1` [Analog 5.4] the value was 40 ± 20 µM; for `O=c1oc2c(-c3cccc(Cl)c3)cc(O)cc2s1` [Analog 5.6], 25 ± 10 µM; for `Cc1cccc(-c2cc(O)cc3sc(=O)oc23)c1` [Analog 5.2], above 400 µM.
